The nature of assay [1]: Inhibition of pERK in human ASPC1 cells measured after 1 hr.
Assay [2] in a line: Inhibition of pERK in human ASPC1 cells measured after 18 hr.
The target in assay [3] is GTPase KRas (Homo sapiens, UniProt P01116). In words: Binding affinity to KRas G12C mutant (unknown origin) assessed as dissociation constant by biolayer interferometry assay.

Where a SMILES comes first, the peptide text is derived from it. Bridges are numbered along the chain shown (N, C = ends). [ ]: non-standard residue; d: D form. S5 = C=CCCC[C@](C)(N)C(=O)O

This is an account of results in BindingDB's records for PubMed 39326269 (Second Military Medical University).

Sequence of GTPase KRas (P01116 whole entry G12C): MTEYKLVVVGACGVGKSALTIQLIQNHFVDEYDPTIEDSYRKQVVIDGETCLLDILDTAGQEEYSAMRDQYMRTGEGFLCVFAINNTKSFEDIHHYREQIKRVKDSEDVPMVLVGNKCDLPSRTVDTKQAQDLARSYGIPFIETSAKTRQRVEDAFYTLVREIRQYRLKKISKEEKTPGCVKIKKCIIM

With `CC[C@H](C)[C@@H]1NC(=O)[C@H](Cc2ccc(O)cc2)NC(=O)[C@H](CC(C)C)NC(=O)[C@@H]2CCCN2C(=O)[C@H](NC(=O)[C@@H](CCCNC(=N)N)NC(=O)[C@@H](CCCNC(=N)N)NC(=O)[C@@H](CCCNC(=N)N)NC(=O)[C@@H](CCCNC(=N)N)NC(=O)[C@H](CCCCN=[N+]=[N-])NC(C)=O)CSSC[C@@H](C(=O)N[C@H](CCCNC(=N)N)C(=O)N[C@H](CCCNC(=N)N)C(=O)N[C@H](CCCNC(=N)N)C(=O)N[C@H](CCCNC(=N)N)C(N)=O)NC(=O)[C@H](C(C)C)NC(=O)[C@@H]2CCCN2C(=O)[C@H](CC(=O)O)NC(=O)[C@H](Cc2ccc(O)cc2)NC(=O)[C@](C)(CO)NC1=O`, the EC50 in assay [1] came to 1200 nM; in assay [2], 1500 nM.
For `CC[C@H](C)[C@H](NC(=O)CNC(=O)[C@H](Cc1ccccc1)NC(C)=O)C(=O)N[C@@]1(C)CCCC=CCCC[C@@](C)(C(=O)N[C@@H](CC(C)C)C(=O)N[C@@H](CCCCN)C(=O)N[C@H](C(N)=O)[C@@H](C)O)NC(=O)[C@H](CC(N)=O)NC(=O)[C@H]([C@@H](C)O)NC(=O)[C@H](CC(C)C)NC1=O` (Ac-FGI[S5]LTN[S5]LKT-NH2; staple 4-8), the Kd in assay [3] was found to be 7670 nM.

A word on the EC50: it is the concentration giving half of the maximal effect. High values mean a less potent agent, low ones a more potent agent. By Kd is commonly meant the equilibrium constant for the complex coming apart.
